Laboratory results taken from ChEMBL document CHEMBL4340540, “3-Substituted Quinolines as RORγt Inverse Agonists” (Bioorg Med Chem Lett, 2019).
≈ marks a conversion by molar mass, not a printed value.

How the values were obtained:
[1] = Equilibrium aqueous solubility of the compound at pH 2; format: physicochemical
[2] = Equilibrium aqueous solubility of the compound at pH 7; format: physicochemical
[3] = biological target: T1, Nuclear receptor ROR-gamma (Homo sapiens) (UniProt P51449); assay: Inverse agonist activity at GAL4-DNA binding domain-fused human full length RORgammat expressed in pGL4.31 transfected HEK293T cells assessed as inhibition of RORGgammat driven transcriptional activity at 2 uM after 24 hrs by luciferase reporter gene assay relative to control; format: cell-based
T1 sequence (whole entry): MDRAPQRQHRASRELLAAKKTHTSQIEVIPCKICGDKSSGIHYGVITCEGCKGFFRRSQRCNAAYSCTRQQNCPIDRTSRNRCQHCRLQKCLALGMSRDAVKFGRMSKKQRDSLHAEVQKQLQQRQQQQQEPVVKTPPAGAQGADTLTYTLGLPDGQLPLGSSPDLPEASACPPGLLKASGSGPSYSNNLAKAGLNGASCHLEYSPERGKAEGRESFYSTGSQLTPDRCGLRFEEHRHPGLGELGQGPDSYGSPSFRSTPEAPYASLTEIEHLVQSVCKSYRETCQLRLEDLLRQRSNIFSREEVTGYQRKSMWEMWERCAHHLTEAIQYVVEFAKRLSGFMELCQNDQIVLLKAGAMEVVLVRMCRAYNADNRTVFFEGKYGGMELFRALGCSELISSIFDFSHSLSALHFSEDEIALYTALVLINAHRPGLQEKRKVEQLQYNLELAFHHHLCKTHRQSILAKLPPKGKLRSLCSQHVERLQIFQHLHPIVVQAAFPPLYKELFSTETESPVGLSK

[4] = biological target: T1, Nuclear receptor ROR-gamma (Homo sapiens); assay: Inverse agonist activity at GAL4-DNA binding domain-fused human RORgammat LBD expressed in pGL4.31 transfected HEK293T cells assessed as inhibition of RORGgammat driven transcriptional activity at 1 uM after 24 hrs by dual-luciferase reporter gene assay relative to control; format: cell-based
[5] = Clearance in rat at 1 mg/kg, iv; format: ADME, organism-based; conditions: in vivo
[6] = Volume of distribution at steady state in rat at 1 mg/kg, iv; format: ADME, organism-based; conditions: in vivo, read-out: Vdss
[7] = Half life in rat at 1 mg/kg, iv; format: ADME, organism-based; conditions: in vivo
[8] = Cmax in rat at 5 mg/kg, po; format: ADME, organism-based; set-up: dose 5 mg/kg, route oral; conditions: in vivo
[9] = Half life in rat at 5 mg/kg, po; format: ADME, organism-based; conditions: in vivo
[10] = Oral bioavailability in rat at 5 mg/kg; conditions: in vivo
[11] = biological target: T2, Nuclear receptor ROR-gamma (Homo sapiens, UniProt P51449)
T2 sequence (P51449 whole entry): T1 sequence (whole entry)

in vitro [12] = conditions: human, liver microsomes
in vitro [13] = conditions: rat, liver microsomes
[14] = biological target: T1, Nuclear receptor ROR-gamma (Homo sapiens); assay: Inverse agonist activity at GAL4-DNA binding domain-fused human full length RORgammat expressed in pGL4.31 transfected HEK293T cells assessed as inhibition of RORGgammat driven transcriptional activity at 3 uM after 24 hrs by dual-luciferase reporter gene assay relative to control; format: cell-based

Row | SMILES | solubility thermodynamic [1] | solubility thermodynamic [2] | further results
1 | COc1nc2ccc(C(O)(c3ccnc(C(F)(F)F)c3)c3cnnn3C)cc2c(Cl)c1CN1CCC(C(F)(F)F)CC1 (stereo not given) | > 400 µM | < 4 µM | inhibition [3]: 100%
2 | COc1nc2ccc(C(O)(c3cnc(C)n3C)C3CCOCC3)cc2c(Cl)c1CN1CCC(C(F)(F)F)CC1 (stereo not given) | > 400 µM | 283 µM (≈ 160 µg/mL) | –
3 | COc1nc2ccc([C@@](O)(c3ccc(C(F)(F)F)nc3)c3cncn3C)cc2c(Cl)c1CN1CCC(C(F)(F)F)CC1 | > 400 µM | < 1 µM | clearance [5]: 7.9 mL/min/kg; Vd [6]: 5.7 L/kg; half-life [7]: 9.1 h; Cmax [8]: 553 ng/mL; half-life [9]: 8.5 h; bioavailability [10]: 77%
4 | COc1nc2ccc(C(O)(c3ccnc(C(F)(F)F)c3)c3cncn3C)cc2c(Cl)c1CN1CCC(C(F)(F)F)CC1 (stereo not given) | > 400 µM | < 1 µM | –
5 | COc1nc2ccc([C@](O)(c3ccnc(C(F)(F)F)c3)c3cnc(C)n3C)cc2c(Cl)c1CN1CCC(C(F)(F)F)CC1 | > 400 µM | < 4 µM | inhibition [3]: 101%
6 | COc1nc2ccc(C(O)(c3ccc(C)nc3C)c3cnnn3C)cc2c(Cl)c1OCc1ncccn1 (stereo not given) | > 400 µM | 336 µM (≈ 174 µg/mL) | –
7 | COc1nc2ccc(C(O)(c3cnc(C)n3C)C3CN(C(C)=O)C3)cc2c(Cl)c1CN1CCC(C(F)(F)F)CC1 (stereo not given) | > 400 µM | > 400 µM | –
8 | COc1nc2ccc(C(O)(c3ccc(C)nc3C)c3cnnn3C)cc2c(Cl)c1OCc1nccs1 (stereo not given) | > 400 µM | < 4 µM | –
9 | COc1nc2ccc(C(O)(c3cc(C)nc(C)c3)c3cnnn3C)cc2c(Cl)c1CN1CCC(C(F)(F)F)CC1 (stereo not given) | > 400 µM | < 1 µM | –
10 | COc1nc2ccc(C(O)(c3ccc(Cl)cc3)c3cncn3C)cc2c(Cl)c1Cc1ccc(-n2cccn2)cc1 (stereo not given) | < 1 µM | < 1 µM | clearance [5]: 11.5 mL/min/kg; Vd [6]: 4.3 L/kg; half-life [7]: 5.6 h; Cmax [8]: 262 ng/mL; half-life [9]: 5.6 h; bioavailability [10]: 42%
11 | COc1nc2ccc(C(O)(c3ccc(C(F)(F)F)nc3)C3CN(C(C)=O)C3)cc2c(Cl)c1CN1CCC(C(F)(F)F)CC1 (stereo not given) | > 400 µM | < 4 µM | inhibition [3]: 94%
12 | COc1nc2ccc(C(O)(c3cnnn3C)c3cnc(C)n3C)cc2c(Cl)c1CN1CCC(C(F)(F)F)CC1 (stereo not given) | > 400 µM | 31 µM (≈ 17.5 µg/mL) | –
13 | COc1nc2ccc(C(O)(c3cnc(C)n3C)c3cnc(C)n3C)cc2c(Cl)c1CN1CCC(C(F)(F)F)CC1 | > 400 µM | 4 to 7 µM (≈ 2.31 to 4.04 µg/mL) | –

More lines, main results first:

Row | solubility thermodynamic [1] | solubility thermodynamic [2] | SMILES | further results
14 | 371 µM (≈ 191 µg/mL) | < 4 µM | COc1nc2ccc(C(O)(c3ccc(C)nc3C)c3cnnn3C)cc2c(Cl)c1OCC1CC1(F)F (stereo not given) | –
15 | 273 µM (≈ 130 µg/mL) | < 4 µM | COc1nc2ccc(C(O)(c3ccc(C)nc3C)c3cnnn3C)cc2c(Cl)c1C1CCCC1 (stereo not given) | –
16 | > 400 µM | < 1 µM | COc1nc2ccc(C(O)(c3ccc(C)nc3C)c3cnnn3C)cc2c(Cl)c1OCC1CC1 (stereo not given) | –
17 | > 400 µM | 41 µM (≈ 20.9 µg/mL) | COc1nc2ccc(C(O)(c3ccc(C)nc3C)c3cnnn3C)cc2c(Cl)c1OC1CCOCC1 (stereo not given) | –
18 | 202 µM (≈ 115 µg/mL) | < 1 µM | COc1nc2ccc(C(O)(c3ccc(C)nc3C)c3cnnn3C)cc2c(Cl)c1Cc1ccc(C(F)(F)F)cc1 (stereo not given) | inhibition [4]: 100%
19 | > 400 µM | < 4 µM | COc1nc2ccc(C(O)(c3ccc(C)nc3C)c3cnnn3C)cc2c(Cl)c1C (stereo not given) | –
20 | > 400 µM | < 1 µM | COc1nc2ccc(C(O)(c3ccc(C)nc3C)c3cnnn3C)cc2c(Cl)c1CN1CCC(C(F)(F)F)CC1 (stereo not given) | –
21 | 387 µM (≈ 215 µg/mL) | 13 µM (≈ 7.23 µg/mL) | COc1nc2ccc(C(O)(c3ccc(C)nc3C)c3cnnn3C)cc2c(Cl)c1CC1CCS(=O)(=O)CC1 (stereo not given) | IC50 [11]: 280 nM; hepatic extraction ratio (in vitro [12]): 0.9; hepatic extraction ratio (in vitro [13]): 0.7
22 | > 400 µM | 100 µM (≈ 52.5 µg/mL) | COc1nc2ccc(C(O)(c3ccc(C)nc3C)c3cnnn3C)cc2c(Cl)c1CN1CCC(F)CC1 (stereo not given) | –
23 | > 400 µM | < 1 µM | COc1nc2ccc(C(O)(c3ccc(C)nc3C)c3cnnn3C)cc2c(Cl)c1CC1CCC(F)(F)CC1 (stereo not given) | –
24 | > 400 µM | 30 µM (≈ 17.2 µg/mL) | COc1nc2ccc(C(O)(c3ccc(C)nc3C)c3cnnn3C)cc2c(Cl)c1CN1CCC(n2cccn2)CC1 (stereo not given) | –
25 | > 400 µM | < 1 µM | COc1nc2ccc(C(O)(c3ccc(C)nc3C)c3cnnn3C)cc2c(Cl)c1OC(C)C (stereo not given) | –
26 | > 400 µM | 8 µM (≈ 4.38 µg/mL) | COc1nc2ccc(C(O)(c3ccc(C)nc3C)c3cnnn3C)cc2c(Cl)c1CN1CC(C(F)(F)F)C1 (stereo not given) | –
27 | > 400 µM | 60 µM (≈ 35.3 µg/mL) | COc1nc2ccc(C(O)(c3ccc(C)nc3C)c3cnnn3C)cc2c(Cl)c1C(=O)N1CCC(C(F)(F)F)CC1 (stereo not given) | inhibition [14]: 66%; IC50 [11]: 386 nM; hepatic extraction ratio (in vitro [12]): 0.8; hepatic extraction ratio (in vitro [13]): 0.8
28 | > 400 µM | < 1 µM | COc1nc2ccc(C(O)(c3ccc(C)nc3C)c3cnnn3C)cc2c(Cl)c1CC(C)C (stereo not given) | –
29 | 395 µM (≈ 194 µg/mL) | < 4 µM | COc1nc2ccc(C(O)(c3ccc(C)nc3C)c3cnnn3C)cc2c(Cl)c1CC(F)(F)F (stereo not given) | –
30 | > 400 µM | < 4 µM | COc1nc2ccc(C(O)(c3ccc(C)nc3C)c3cnnn3C)cc2c(Cl)c1CN1CCC(F)(F)CC1 (stereo not given) | –
31 | > 400 µM | < 1 µM | COc1nc2ccc(C(O)(c3ccc(C)nc3C)c3cnnn3C)cc2c(Cl)c1CC1CC1 (stereo not given) | –
